In ChEMBL document CHEMBL1122963, “[3H]Batrachotoxinin A 20 alpha-benzoate binding to voltage-sensitive sodium channels: a rapid and quantitative assay for local anesthetic activity in a variety of drugs” (J Med Chem, 1985):

Tests used:
[1] = biological target: T1, Sodium channel alpha subunits; brain (Types I, II, III) (Homo sapiens, UniProt P35498+Q99250+Q9NY46); assay: Inhibition of binding of Batrachotoxinin [3H]BTX-B to high affinity sites on voltage dependent sodium channels in a vesicular preparation from guinea pig cerebral cortex; type: tissue-based, Cavia porcellus
[2] = biological target: T1, Sodium channel alpha subunits; brain (Types I, II, III); settings: Cavia porcellus; Cerebral cortex; at 10 µM

Compound | IC50 [1] | inhibition [2]
OC(CCN1CCCCC1)(c1ccccc1)C1CC2C=CC1C2 (centres undefined) [BIPERIDEN] | < 10 µM | 62.9%
OC(CCCN1CCCCC1)(c1ccccc1)c1ccccc1 [DIPHENIDOL] | 3.4 µM | 65.1%
O=C(CCCN1CCC2(CC1)C(=O)NCN2c1ccccc1)c1ccc(F)cc1 [SPIPERONE] | – | 98.7%
CC[C@@H]1CN2CC[C@@H]1C[C@H]2[C@H](O)c1ccnc2ccc(OCCC(C)C)cc12 | 0.74 µM | 95.7%
COC(=O)[C@H]1[C@H]2C[C@@H]3c4[nH]c5cc(OC)ccc5c4CCN3C[C@H]2C[C@@H](OC(=O)c2cc(OC)c(OC)c(OC)c2)[C@@H]1OC [RESERPINE] | 1.6 µM | 100%
CCCOc1ccc(C(=O)OCCN(CC)CC)cc1N [PROPARACAINE] | 1.9 µM | 79.9%
CCN(CC)CCCN1C(=O)CC2(CCCc3ccccc32)C1=O (racemic; form 2) [listing 1 of 2 here] | – | 54.1%
Cl.NCCCCCCNS(=O)(=O)c1cccc2ccccc12 | 22 µM | 33.3%
CCOC(=O)C1=C(C)NC(C)=C(C(=O)OC)C1c1cccc(Cl)c1Cl (centres undefined) [FELODIPINE] | 37 µM | 20.1%
CCOc1ccc(/N=C(\C)Nc2ccc(OCC)cc2)cc1 [PHENACAINE] | 1.7 µM | 81.1%
O=C1C[C@@H]2OCC=C3CN4CC[C@]56c7ccccc7N1[C@H]5[C@H]2[C@H]3C[C@H]46 [STRYCHNINE] | 21 µM | 35.7%
CC[N+](CC)(CC)CC | – | 1.4%
COC(=O)[C@@H]1[C@H]2C[C@H]3c4[nH]c5ccccc5c4CCN3C[C@@H]2CC[C@@H]1O [YOHIMBINE] | 33 µM | 25.6%
CC(C)Cn1c(=O)n(C)c(=O)c2nc[nH]c21 [ISOBUTYLMETHYLXANTHINE] | 1.8 µM | 0.9%
NC[C@H](CC(=O)O)c1ccc(Cl)cc1 | – | 11.7%
C=CCC1(C(C)CCC)C(=O)NC(=O)NC1=O (centres undefined) | – | 4.4%
CCN(CC)CCCN1C(=O)CC2(CCCc3ccccc32)C1=O (racemic; form 1) [listing 1 of 2 here] | – | 25.7%
CC(C)NC[C@H](O)COc1cccc2ccccc12 [LEVOPROPRANOLOL] | 13 µM | 42.6%
CCCCC1=C(N(C)C)c2cc3c(cc2C1)OCO3 | 12.5 µM | 45%
CN(C)CCCn1c2c(c3ccccc31)CCCCCC2 | – | 42.4%
C=C[C@H]1CN2CC[C@H]1C[C@H]2[C@H](O)c1ccnc2ccc(OC)cc12 [QUININE] | – | 69.3%

Compound | IC50 [1] | inhibition [2]
COc1ccc(CN(CCN(C)C)c2ccccn2)cc1 | – | 44.5%
CC(C)NCC(O)c1ccc(Cl)c(Cl)c1 (centres undefined) [DICHLOROISOPROTERENOL] | < 10 µM | 53%
CCCOc1cc(N)ccc1C(=O)OCCN(CC)CC [PROPOXYCAINE] | 24 µM | 30%
C=C(C)[C@@H]1[C@H]2OC(=O)[C@@H]1[C@]1(O)C[C@H]3OC34C(=O)O[C@H]2[C@@]41C.CC(C)(O)[C@@H]1[C@H]2OC(=O)[C@@H]1[C@]1(O)C[C@H]3OC34C(=O)O[C@H]2[C@@]41C (some centres undefined) [PICROTOXIN] | 700 µM | 22.7%
CC(C)(C)NC[C@H](O)COc1nsnc1N1CCOCC1 | – | 8%
CN(C)CCC(c1ccccc1)c1ccccn1 (centres undefined) [PHENIRAMINE] | 33 µM | 24.9%
CCCC[N+]1(C)CCCCC1C(=O)Nc1c(C)cccc1C.[I-] (centres undefined) | 4.8 µM | 64.5%
CC(C)(C)NCC(O)COc1cccc2c1CCCC2=O (centres undefined) | – | 27.3%
Cn1c(=O)c2c(ncn2C)n(C)c1=O [CAFFEINE] | 660 µM | 9.7%
CCCCOc1cc(C(=O)OCCN(CC)CC)ccc1N [BENOXINATE] | 2.9 µM | 73.4%
CCN(CC)CCOC(=O)c1ccc(N)cc1 [PROCAINE] | 110 µM | 47.3%
CN(C)CCCN1c2ccccc2Sc2ccc(Cl)cc21 [CHLORPROMAZINE] | 4.3 µM | 72.2%
CC(C)COCC(CN(Cc1ccccc1)c1ccccc1)N1CCCC1 (centres undefined) [BEPRIDIL] | 0.84 µM | 96.2%
Cc1ccc(N(CC2=NCCN2)c2cccc(O)c2)cc1 [PHENTOLAMINE] | 8.4 µM | 54.6%
O=C(CCCN1CCC(O)(c2ccc(Cl)cc2)CC1)c1ccc(F)cc1 | – | 85.5%
CC[N+](CC)(CC)CC(=O)Nc1c(C)cccc1C.[Cl-] | 97 µM | 52.4%
COc1ccc(CCN(C)CCCC(C#N)(c2ccc(OC)c(OC)c2)C(C)C)cc1OC (centres undefined) | – | 74.4%
CCCC(C(=O)OCC[N+](C)(CC)CC)(c1ccccc1)c1ccccc1.[I-] | 4.2 µM | 72%
O=C(O)c1ccccc1Nc1cccc(C(F)(F)F)c1 | – | 26.7%
Cl.NCCCCCCNS(=O)(=O)c1cccc2c(Cl)cccc12 [N-AMINOHEXYL-5-CHLORO-1-NAPTHALENESULFONAMIDE HYDROCHLORIDE] | 12 µM | 46.8%
COc1ccc(CCN(C)CCCC2(c3ccc(OC)c(OC)c3)S(=O)(=O)CCCS2(=O)=O)cc1OC | 13.5 µM | –

Compound | IC50 [1] | inhibition [2]
CC/C(=C(/CC)c1ccc(O)cc1)c1ccc(O)cc1 | – | 30.1%
NC(=O)N1c2ccccc2C=Cc2ccccc21 | – | 1.6%
COc1cc2c(cc1OC)-c1c/c(=N\c3c(C)cc(C)cc3C)n(C)c(=O)n1CC2 | – | 17.4%
CC(CN1c2ccccc2Sc2ccccc21)N(C)C (centres undefined) [PROMETHAZINE] | 6.9 µM | 61%
C[N+](C)(CC(=O)Nc1ccccc1)CC(=O)Nc1ccccc1.[Cl-] [CARCAINIUM CHLORIDE] | 3.9 µM | 71.6%
CCOC(=O)C1=C(C)NC(C)=C(C(=O)OC)C1c1cccc([N+](=O)[O-])c1 (centres undefined) [NITRENDIPINE] | 36 µM | 23.1%
C=C(c1ccc(Oc2cccc3ccccc23)cc1)C1COC2(CCCCC2)OO1.Cl (centres undefined) | 7 µM | 68.3%
CCCCN1CCCCC1C(=O)Nc1c(C)cccc1C (centres undefined) [BUPIVACAINE] | – | 63.4%
C[N+](C)(C)CCOC(c1ccccc1)c1ccccc1.[I-] | 64 µM | 69%
CC(C)[C@@]1(O)[C@@H](OC(=O)c2cc[nH]c2)[C@@]2(O)[C@]3(C)C[C@@]4(O)O[C@@]5([C@H](O)[C@@H](C)CC[C@]35O)[C@@]2(O)[C@@]41C | – | 0%
Cn1c(=O)c2nc(-c3ccccc3)[nH]c2n(C)c1=O | – | 10.9%
CN(C)C(=O)C(CCN1CCC(O)(c2ccc(Cl)c(C(F)(F)F)c2)CC1)(c1ccccc1)c1ccccc1 [FLUPERAMIDE] | 0.28 µM | 100%
CC(C)NC[C@@H](O)COc1cccc2ccccc12 [DEXPROPRANOLOL] | 10 µM | 50%
COc1ccc(CCN(C)CCCC(C#N)(c2cc(OC)c(OC)c(OC)c2)C(C)C)cc1OC (centres undefined) [GALLOPAMIL] | 3.6 µM | 67.1%
CNCCCN1c2ccccc2CCc2ccccc21 [DESIPRAMINE] | 2.4 µM | 80.3%
CN(C)C/C=C(/c1ccc(Br)cc1)c1cccnc1 | – | 34.6%
CNCCCC1c2ccccc2C=Cc2ccccc21 [PROTRIPTYLINE] | < 10 µM | 70.3%
CCN(CC)CCCN1C(=O)CC2(CCCc3ccccc32)C1=O (racemic; form 1) [listing 2 of 2 here] | 94 µM | –
COc1ccc2c3c1O[C@H]1[C@@H](O)C=C[C@H]4[C@@H](C2)N(C)CC[C@@]341 | – | 5.7%
CCCCOc1cc(C(=O)NCCN(CC)CC)c2ccccc2n1 [DIBUCAINE] | – | 77.4%
COc1cc(C(=O)OCCCN2CCCN(CCCOC(=O)c3cc(OC)c(OC)c(OC)c3)CC2)cc(OC)c1OC [DILAZEP] | 0.6 µM | 99.3%

Compound | IC50 [1] | inhibition [2]
COc1cccc(OC)c1OCCNCC1=COc2ccccc2O1 | 2.4 µM | 67.7%
CSc1ccc2c(c1)N(CCC1CCCCN1C)c1ccccc1S2 (centres undefined) [THIORIDAZINE] | 6.5 µM | 63.5%
COC(=O)[C@H]1[C@H]2C[C@H]3c4[nH]c5ccccc5c4CCN3C[C@@H]2CC[C@@H]1O | – | 33.7%
CN(C)CCCN1c2ccccc2Sc2ccccc21 [PROMAZINE] | 5.4 µM | 65.3%
C[C@H](Cc1ccccc1)Nc1ncnc2c1ncn2[C@@H]1O[C@H](CO)[C@@H](O)[C@H]1O | – | 2.2%
CC(C)NCC(O)c1ccc([N+](=O)[O-])cc1 (centres undefined) | – | 7.9%
NCC(CC(=O)O)c1ccc(Cl)cc1 (centres undefined) | – | 6.2%
C=C[C@H]1CN2CC[C@H]1C[C@@H]2[C@@H](O)c1ccnc2ccc(OC)cc12 [QUINIDINE] | – | 74.1%
CCN(CC)CCCN1C(=O)CC2(CCCc3ccccc32)C1=O (racemic; form 2) [listing 2 of 2 here] | 12 µM | –
COC(=O)[C@H]1[C@H]2C[C@H]3c4[nH]c5ccccc5c4CCN3C[C@H]2CC[C@@H]1O | – | 13.1%
O=C1NC(=O)C(c2ccccc2)(c2ccccc2)N1 | – | 18.5%
(-)-BUTACLAMOL | – | 87.1%
COC(=O)C1=C(C)NC(C)=C(C(=O)OC)C1c1ccccc1[N+](=O)[O-] | – | 26%
CCC1(c2ccccc2)C(=O)NC(=O)NC1=O | – | 5.4%
CCCN(CC)C(CC)C(=O)Nc1c(C)cccc1C (centres undefined) [ETIDOCAINE] | – | 73.2%
CC(C)CCC[C@@H](C)[C@H]1CC[C@H]2[C@@H]3CC=C4C[C@@H](O)CC[C@]4(C)[C@H]3CC[C@]12C | – | 3.3%
CCCCOc1cc(CC2CNC(=O)N2)ccc1OC (centres undefined) | – | 14.1%
CCCCNc1ccc(C(=O)OCCN(C)C)cc1 | – | 72%
COc1cc2c3cc1Oc1cc(ccc1O)C[C@@H]1c4c(cc(OC)c(O)c4Oc4ccc(cc4)C[C@@H]3N(C)CC2)CC[N+]1(C)C | – | 3%
CC(=O)Nc1ccc(OCC(O)CNC(C)C)cc1 (centres undefined) | – | 8.4%
